# Measured values from patent US12187719B2, “Proteolysis targeting chimera (PROTACS) as degraders of SMARCA2 and /or SMARCA4” (Boehringer Ingelheim International GmbH, priority 2018, dated 2025).
# Tests used:
# SMARCA4 = target: T1, SMARCA4 (Homo sapiens, UniProt P51532); test: Protein degradation assay in A549 cells, SMARCA4 levels by WES capillary electrophoresis; assay type: cell-based; conditions: A549 (NSCLC) cells with SMARCA4 mutation corrected to wild type, 18 h incubation; for DC50: concentration at which half maximal degradation is achieved, normalised to GAPDH; for Dmax: maximal amount of degraded protein relative to initial levels
# T1 construct: endogenous in cells; host or cells: A549 (NSCLC) cells with SMARCA4 mutation corrected to wild type
# T1 sequence (P51532 whole entry): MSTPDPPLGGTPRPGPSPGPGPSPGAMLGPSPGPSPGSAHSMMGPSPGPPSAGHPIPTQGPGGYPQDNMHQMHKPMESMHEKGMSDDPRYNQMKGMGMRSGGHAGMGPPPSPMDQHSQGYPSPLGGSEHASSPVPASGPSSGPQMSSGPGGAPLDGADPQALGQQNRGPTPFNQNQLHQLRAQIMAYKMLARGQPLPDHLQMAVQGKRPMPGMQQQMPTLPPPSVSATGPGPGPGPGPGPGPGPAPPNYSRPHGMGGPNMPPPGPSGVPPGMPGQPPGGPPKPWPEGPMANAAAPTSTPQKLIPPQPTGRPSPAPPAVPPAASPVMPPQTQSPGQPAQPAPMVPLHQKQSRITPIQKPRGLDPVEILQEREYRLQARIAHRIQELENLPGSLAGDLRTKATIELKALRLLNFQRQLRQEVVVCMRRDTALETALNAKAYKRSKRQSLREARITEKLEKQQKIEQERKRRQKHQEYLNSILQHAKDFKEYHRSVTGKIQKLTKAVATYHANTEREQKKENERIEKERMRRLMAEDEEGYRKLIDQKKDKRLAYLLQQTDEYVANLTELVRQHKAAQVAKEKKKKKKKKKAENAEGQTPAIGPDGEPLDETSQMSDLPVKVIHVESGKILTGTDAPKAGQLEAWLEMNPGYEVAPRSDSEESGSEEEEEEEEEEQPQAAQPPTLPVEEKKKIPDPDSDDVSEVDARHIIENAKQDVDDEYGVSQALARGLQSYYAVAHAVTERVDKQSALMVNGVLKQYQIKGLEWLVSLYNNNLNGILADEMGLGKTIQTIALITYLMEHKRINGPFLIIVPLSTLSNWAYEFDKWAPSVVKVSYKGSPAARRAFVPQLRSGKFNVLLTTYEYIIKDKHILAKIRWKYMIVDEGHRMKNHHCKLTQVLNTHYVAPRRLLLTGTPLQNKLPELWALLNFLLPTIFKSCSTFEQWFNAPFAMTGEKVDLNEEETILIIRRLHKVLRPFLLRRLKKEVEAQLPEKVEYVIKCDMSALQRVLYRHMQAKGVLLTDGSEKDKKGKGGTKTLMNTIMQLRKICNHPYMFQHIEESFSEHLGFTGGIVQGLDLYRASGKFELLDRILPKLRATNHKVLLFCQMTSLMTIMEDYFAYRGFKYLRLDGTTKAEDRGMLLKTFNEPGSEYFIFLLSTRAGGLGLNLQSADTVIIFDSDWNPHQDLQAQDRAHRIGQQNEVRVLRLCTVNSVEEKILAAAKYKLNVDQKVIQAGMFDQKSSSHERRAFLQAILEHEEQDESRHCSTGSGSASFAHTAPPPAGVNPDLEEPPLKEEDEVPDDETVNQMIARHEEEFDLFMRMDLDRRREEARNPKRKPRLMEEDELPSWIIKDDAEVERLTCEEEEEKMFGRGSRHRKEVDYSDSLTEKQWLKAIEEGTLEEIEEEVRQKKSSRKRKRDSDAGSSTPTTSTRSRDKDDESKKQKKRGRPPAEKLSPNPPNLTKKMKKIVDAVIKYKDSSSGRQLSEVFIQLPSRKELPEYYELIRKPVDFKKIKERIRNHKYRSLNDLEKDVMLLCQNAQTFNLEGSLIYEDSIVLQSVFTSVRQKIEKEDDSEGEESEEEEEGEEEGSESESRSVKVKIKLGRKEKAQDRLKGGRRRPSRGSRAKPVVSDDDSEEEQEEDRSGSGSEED
# Protocol: (§1) For the protein degradation assay, A549 (NSCLC) cells are used in which the inactivating SMARCA4 mutation has been corrected to wild type, such that the cells express both SMARCA2 and SMARCA4. 35000 cells in F12K Medium +10% FBS (100 μL/well) are seeded in a Greiner 96 well F-bottom plate and incubated at 37° C. overnight. Compounds are added from DMSO stock solution using ECHO Access™ workstation or HP D300 Digital Dispenser and cells are incubated at 37° C. for 18 h. Medium is removed, cells are washed with PBS, PBS is removed and 30 μL cold Lysis Buffer (1% Triton, 350 mM KCl, 10 mM Tris, Halt Phosphatase-Protease Inhibitors, 10 mM DTT, Benzonase 0.5 μL/mL) is added to each well. Cells are lysed for 20 min at 4° C. on a bioshake at 800 rpm before insoluble debris is pelleted by centrifugation for 20 min at 4000 rpm at 4° C. The supernatant is transferred to a fresh PCR plate. SMARCA2 levels are determined on a WES capillary electrophoresis instrument (Proteinsimple) using rabbit anti-SMARCA2 antibody (1:25, Sigma #HPA029981), SMARCA4 antibody (CellSignaling #49360, 1:25), PBRM1 antibody (Bethyl #A301-591A-M, 1:40) and anti-GAPDH antibody (1:100, Abcam #ab9485) for normalization.
# The Dmax represents the efficiency of degradation and gives the maximal amount of degraded protein relative to initial levels.
# SMARCA2 = target: T2, SMARCA2 (Homo sapiens, UniProt P51531); test: Protein degradation assay in A549 cells, SMARCA2 levels by WES capillary electrophoresis; assay type: cell-based; conditions: A549 (NSCLC) cells with SMARCA4 mutation corrected to wild type, 18 h incubation; for DC50: concentration at which half maximal degradation is achieved, normalised to GAPDH; for Dmax: maximal amount of degraded protein relative to initial levels
# T2 construct: such that the cells express both SMARCA2 and SMARCA4; endogenous in cells; host or cells: A549 (NSCLC) cells with SMARCA4 mutation corrected to wild type
# T2 sequence (P51531 whole entry): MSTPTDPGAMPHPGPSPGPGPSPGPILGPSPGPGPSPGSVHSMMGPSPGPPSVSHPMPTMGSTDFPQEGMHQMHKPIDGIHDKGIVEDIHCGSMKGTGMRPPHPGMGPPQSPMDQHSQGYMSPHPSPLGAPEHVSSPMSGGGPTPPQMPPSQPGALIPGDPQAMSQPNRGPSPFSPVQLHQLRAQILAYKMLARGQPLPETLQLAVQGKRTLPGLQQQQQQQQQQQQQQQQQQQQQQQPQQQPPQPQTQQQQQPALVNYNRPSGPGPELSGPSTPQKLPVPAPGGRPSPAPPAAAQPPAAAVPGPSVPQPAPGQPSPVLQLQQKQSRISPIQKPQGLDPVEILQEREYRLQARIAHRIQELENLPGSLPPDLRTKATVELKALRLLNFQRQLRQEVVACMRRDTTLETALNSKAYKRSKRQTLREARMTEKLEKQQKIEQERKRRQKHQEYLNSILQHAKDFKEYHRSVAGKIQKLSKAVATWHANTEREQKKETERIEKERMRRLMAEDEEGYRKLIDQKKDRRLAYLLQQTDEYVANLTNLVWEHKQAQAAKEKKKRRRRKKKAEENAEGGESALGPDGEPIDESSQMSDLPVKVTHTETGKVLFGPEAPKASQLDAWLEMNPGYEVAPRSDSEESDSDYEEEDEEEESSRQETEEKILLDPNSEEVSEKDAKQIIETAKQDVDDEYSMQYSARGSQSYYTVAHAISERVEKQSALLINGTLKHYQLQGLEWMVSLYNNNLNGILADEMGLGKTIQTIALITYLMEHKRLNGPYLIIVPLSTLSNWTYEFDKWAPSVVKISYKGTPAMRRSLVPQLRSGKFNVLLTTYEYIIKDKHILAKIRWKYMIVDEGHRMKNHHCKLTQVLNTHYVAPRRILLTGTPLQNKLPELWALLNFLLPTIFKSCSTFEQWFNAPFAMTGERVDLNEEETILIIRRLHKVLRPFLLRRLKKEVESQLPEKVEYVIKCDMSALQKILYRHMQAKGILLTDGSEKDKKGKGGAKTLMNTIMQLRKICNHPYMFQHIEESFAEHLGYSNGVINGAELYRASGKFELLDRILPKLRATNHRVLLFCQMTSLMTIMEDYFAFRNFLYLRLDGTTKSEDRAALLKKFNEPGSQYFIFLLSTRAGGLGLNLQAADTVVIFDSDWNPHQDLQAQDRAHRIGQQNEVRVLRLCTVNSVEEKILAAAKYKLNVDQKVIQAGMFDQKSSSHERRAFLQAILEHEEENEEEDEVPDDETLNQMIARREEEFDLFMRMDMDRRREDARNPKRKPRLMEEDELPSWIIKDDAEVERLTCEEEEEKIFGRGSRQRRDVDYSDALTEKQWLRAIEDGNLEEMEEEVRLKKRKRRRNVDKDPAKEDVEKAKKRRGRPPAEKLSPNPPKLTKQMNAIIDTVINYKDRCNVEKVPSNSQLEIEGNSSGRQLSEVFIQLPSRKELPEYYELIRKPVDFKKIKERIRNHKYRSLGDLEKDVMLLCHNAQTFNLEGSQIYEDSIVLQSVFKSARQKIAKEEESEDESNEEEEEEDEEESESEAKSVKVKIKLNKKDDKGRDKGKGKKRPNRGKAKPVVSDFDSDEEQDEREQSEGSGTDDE
# Protocol: as §1
# The compounds 1-1 to 1-18 according to the invention have been tested in the above described assay. The majority of the compounds show degradation of SMARCA2 and SMARCA4 protein in A549 cells with DC50 in the range of 10-1000 nM (i.e. compound concentration at which half maximal degradation is achieved). The Dmax represents the efficiency of degradation and gives the maximal amount of degraded protein relative to initial levels. The majority of the compounds reach degradation levels >80%.
DC50 (SMARCA4) [µM],Dmax (SMARCA4) [%],DC50 (SMARCA2) [µM],Dmax (SMARCA2) [%],Structure (SMILES)
2.04,100,–,–,Cc1ncsc1-c1ccc(CNC(=O)[C@@H]2C[C@@H](O)CN2C(=O)[C@@H](NC(=O)C2(F)CC2)C(C)(C)C)c(OCCCOCCN2CCN(c3cc(-c4ccccc4O)nnc3N)CC2)c1 [Compound I-3]
0.016,100,0.026,99,Cc1ncsc1-c1ccc(CNC(=O)[C@@H]2C[C@@H](O)CN2C(=O)[C@@H](NC(=O)C2(F)CC2)C(C)(C)C)c(OCCCOc2ccc(CN3CCN(c4cc(-c5ccccc5O)nnc4N)CC3)cc2)c1 [Compound I-11]
0.188,81,0.525,98,Cc1ncsc1-c1ccc(CNC(=O)[C@@H]2C[C@@H](O)CN2C(=O)[C@@H](NC(=O)C2(F)CC2)C(C)(C)C)c(OCCc2ccc(C(=O)N3CCN(c4cc(-c5ccccc5O)nnc4N)CC3)cc2)c1 [Compound I-18]
0.219,89,0.172,83,Cc1ncsc1-c1ccc(CNC(=O)[C@@H]2C[C@@H](O)CN2C(=O)[C@@H](NC(=O)C2(F)CC2)C(C)(C)C)c(OCCCCCCCOCCN2CCN(c3cc(-c4ccccc4O)nnc3N)CC2)c1 [Compound I-6]
0.026,99,0.041,99,Cc1ncsc1-c1ccc(CNC(=O)[C@@H]2C[C@@H](O)CN2C(=O)[C@@H](NC(=O)C2(F)CC2)C(C)(C)C)c(OCCc2ccc(OCCN3CCN(c4cc(-c5ccccc5O)nnc4N)CC3)cc2)c1 [Compound I-10]
0.17,83,0.236,85,Cc1ncsc1-c1ccc(CNC(=O)[C@@H]2C[C@@H](O)CN2C(=O)[C@@H](NC(=O)C2(F)CC2)C(C)(C)C)c(OCCCCOc2ccc(CN3CCN(c4cc(-c5ccccc5O)nnc4N)CC3)cc2)c1 [Compound I-9]
1.24,70,0.45,45,Cc1ncsc1-c1ccc(CNC(=O)[C@@H]2C[C@@H](O)CN2C(=O)[C@@H](NC(=O)C2(F)CC2)C(C)(C)C)c(OCCCCCCCN2CCN(c3cc(-c4ccccc4O)nnc3N)CC2)c1 [Compound I-1]
–,–,~1,40,Cc1ncsc1-c1ccc(CNC(=O)[C@@H]2C[C@@H](O)CN2C(=O)[C@@H](NC(=O)C2(F)CC2)C(C)(C)C)c(OCc2ccc(CCN3CCN(c4cc(-c5ccccc5O)nnc4N)CC3)cc2)c1 [Compound I-12]
0.168,59,0.056,88,Cc1ncsc1-c1ccc(CNC(=O)[C@@H]2C[C@@H](O)CN2C(=O)[C@@H](NC(=O)C2(F)CC2)C(C)(C)C)c(OCc2ccc(CN3CCN(c4cc(-c5ccccc5O)nnc4N)CC3)cc2)c1 [Compound I-8]
0.634,97,0.189,88,Cc1ncsc1-c1ccc(CNC(=O)[C@@H]2C[C@@H](O)CN2C(=O)[C@@H](NC(=O)C2(F)CC2)C(C)(C)C)c(OCCc2cccc(CN3CCN(c4cc(-c5ccccc5O)nnc4N)CC3)c2)c1 [Compound I-13]
–,84,2.54,89,Cc1ncsc1-c1ccc(CNC(=O)[C@@H]2C[C@@H](O)CN2C(=O)[C@@H](NC(=O)C2(F)CC2)C(C)(C)C)c(OCCOCCOCCN2CCN(c3cc(-c4ccccc4O)nnc3N)CC2)c1 [Compound I-5]
0.025,92,0.058,90,Cc1ncsc1-c1ccc(CNC(=O)[C@@H]2C[C@@H](O)CN2C(=O)[C@@H](NC(=O)C2(F)CC2)C(C)(C)C)c(OCCCc2ccc(CN3CCN(c4cc(-c5ccccc5O)nnc4N)CC3)cc2)c1 [Compound I-14]
0.735,87,1,70,Cc1ncsc1-c1ccc(CNC(=O)[C@@H]2C[C@@H](O)CN2C(=O)[C@@H](NC(=O)C2(F)CC2)C(C)(C)C)c(OCCCCOCCN2CCN(c3cc(-c4ccccc4O)nnc3N)CC2)c1 [Compound I-4]
0.117,93,0.067,91,Cc1ncsc1-c1ccc(CNC(=O)[C@@H]2C[C@@H](O)CN2C(=O)[C@@H](NC(=O)C2(F)CC2)C(C)(C)C)c(OCCc2ccc(CN3CCN(c4cc(-c5ccccc5O)nnc4N)CC3)cc2)c1 [Compound I-2]

Structure (SMILES),DC50 (SMARCA4) [µM],Dmax (SMARCA4) [%],DC50 (SMARCA2) [µM],Dmax (SMARCA2) [%]
Cc1ncsc1-c1ccc(CNC(=O)[C@@H]2C[C@@H](O)CN2C(=O)[C@@H](NC(=O)C2(F)CC2)C(C)(C)C)c(OCCOc2ccc(CN3CCN(c4cc(-c5ccccc5O)nnc4N)CC3)cc2)c1 [Compound I-7],0.016,97,0.012,98
